SMILES strings stand for the structures. Values after ≈ are worked out from the molar mass of the structure shown. Where two headings read alike, the source gives them in different places.

In one assay the test system is C. jejuni. Description: MIC testing by broth dilution, C. jejuni. It counts as cell-based, Campylobacter jejuni. Put shortly:
(§1)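 Values are broth-dilution MICs, defined as the well showing no growth on visual reading after 24 h; the tested range was 32 to 0.06 μg/ml, in organism-specific media (LB, Trypticase Soy, Brain Heart Infusion). The C. difficile entries come instead from anaerobic Kirby-Bauer disk zones, normalised to NTZ.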

For another assay, the system named is S. epidermidis. The assay is described as follows: MIC testing by broth dilution, S. epidermidis plank. Type of assay: cell-based, Staphylococcus epidermidis. The procedure, abridged:
as §1
A general note: Broth dilution looks for growth in wells or tubes with falling amounts of substance.

In a further assay the test system is H. pylori. The assay is described as follows: MIC testing by broth dilution, H. pylori. It counts as cell-based, Helicobacter pylori. Put shortly:
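Helicobacter pylori was tested using a standard broth dilution method in 96 well microplates, each well holding a standard dilution of the organism in 100 microliters of Brain Heart Infusion. Compounds started at 32 μg/ml in 200 microliters in the first well and were serially diluted from 32 to 0.06. Wells were read visually at 24 h, and the MIC was the well with no growth.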

The subject of the next assay is E. coli. Description: MIC testing by broth dilution, E. coli plank. Type of assay: cell-based, Escherichia coli. The procedure, abridged: as §1
The test system of the next assay is MRSA. Description: MIC testing by broth dilution, MRSA. It counts as cell-based, Staphylococcus aureus. The procedure, abridged:
as §1

The subject of another assay is E. coli biofilm. The assay is described as follows: E. coli biofilm assay (activity tables). Type of assay: cell-based, Escherichia coli. The procedure, abridged:
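E. coli strain 042 inoculated 1:100 with NTZ-containing medium and grown statically at 37 °C for 24 h. Growth measured by turbidity or plate counts (cfu/ml); biofilm stained with 0.5% crystal violet and read at 570 nm; triplicate, mean ± SD.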

The next assay relates to S. epidermidis biofilm. The assay is described as follows: S. epidermidis biofilm assay (activity tables). It counts as cell-based, Staphylococcus epidermidis. The procedure: Staphylococcal strains were cultured overnight in TSB at 37° C. with shaking, diluted in fresh medium to an OD600 of 0.01 and 200 W was dispensed into sterile flat bottom polystyrene 96 well microtiter plates (Costar 3596, Corning Inc.). […] Each compound and dilution was tested in triplicate. The plates were incubated overnight at 37° C. in a humidified incubator, without shaking and both growth and biofilm accumulation were determined at 16 h.
Following recording of turbidities, the culture medium was aspirated and the wells were washed three times with distilled water, blotted on paper towels, and fixed with 75% ethanol for 10 minutes.
To visualize biofilm material, 0.5% crystal violet was added to each well and after 5 minutes was removed and the wells washed three times with distilled water. Plates were read using a microplate reader at a wavelength of 570 nm. The dye was then extracted by adding 200 W of 95% ethanol, and the absorbance was read again at 570 nm. All assays were performed in triplicate and the mean and standard deviation determined. […]
(§2) Representative compounds of the invention were tested in a series of assays against a series of organisms as described above. […] The organisms tested include, C. difficile, H. pylori, C. jejuni, MRSA, S. epidermidis, and E. coli. S. epidermidis and E. coli were tested in the plank and biofilm assay. A disk diffusion assay was also used for C. difficile. Direct PFOR enzyme assays were also performed. All analogues and derivatives were not tested on every organism in every type of assay (the “-” in each table means that it was not tested).

The test system of another assay is C. difficile. Description: Disk diffusion (Kirby Bower), C. difficile. Conditions: Nitazoxanide = 100; Furan analogues table. Type of assay: cell-based, Clostridium difficile. Here is the method:
A standard broth dilution protocol was used in 96 well microplates containing a standard dilution of the microorganism to be tested in 100 microliters of the appropriate medium. Appropriate medium: E. coli, LB medium; Staphylococcus strains, Trypticase Soy; and for H. pylori and C. jejuni, Brain Heart Infusion. The compounds to be tested were set at 32 μg/ml in 200 microliters in well one and then serially diluted to provide a range from 32 to 0.06. The wells were scored visually at 24 h. The well where there was no growth was recorded as the MIC. Clostridium difficile was tested by agar diffusion and disk diffusion (Kirby Bower) methods under anaerobic conditions on Wilkins Chalgrin agar. In these assays, zone of inhibited growth was measured and compared by relative ratio to the zone recorded for NTZ.
as §2

Consider `O=C(Nc1ncc([N+](=O)[O-])s1)c1ccc(-c2cccc(C(F)(F)F)c2)o1` [VPC161197], for which the MIC in the assay on C. jejuni (Furan analogues table, read-out: MIC C. jejuni) turned out to be 8.5 µM (≈ 3.26 µg/mL); in the assay on S. epidermidis (planktonic, Furan analogues table, read-out: MIC S. epidermidis Plank), 5.7 µM (≈ 2.18 µg/mL); in the assay on H. pylori (Furan analogues table, read-out: MIC H. pylori), 1.1 µM (≈ 0.422 µg/mL); with E. coli (planktonic, Furan analogues table, read-out: MIC E. coli Plank), 90.8 µM (≈ 34.8 µg/mL); with MRSA (Furan analogues table, read-out: MIC MRSA), 11.4 µM (≈ 4.37 µg/mL); with E. coli biofilm (biofilm; Furan analogues table; read-out: MIC E. coli Biofilm), 90.8 µM (≈ 34.8 µg/mL). Also, the “MIC S. epidermidis Biofilm” value in the assay on S. epidermidis biofilm (Furan analogues table) is 5.7 µM (≈ 2.18 µg/mL).
Regarding `O=C(Nc1ccc(F)cc1)Nc1ncc([N+](=O)[O-])s1` [VPC161267], the MIC with C. jejuni (Campylobacter jejuni, broth dilution, Brain Heart Infusion, 24 h, read-out: MIC (μM) C. jejuni) worked out at 21.3 µM (≈ 6.01 µg/mL); in the assay with S. epidermidis (Staphylococcus epidermidis, broth dilution, Trypticase Soy, 24 h, read-out: MIC (μM) S. epidermidis Plank), 28.3 µM (≈ 7.99 µg/mL); in the assay on H. pylori (Helicobacter pylori, broth dilution, Brain Heart Infusion, 24 h, read-out: MIC (μM) H. pylori), 0.9 µM (≈ 0.254 µg/mL); in the assay on E. coli (Escherichia coli, broth dilution, LB medium, 24 h, read-out: MIC (μM) E. coli Plank), 113 µM (≈ 32 µg/mL); in the assay with MRSA (Staphylococcus aureus, MRSA, broth dilution, Trypticase Soy, 24 h, read-out: MIC (μM) MRSA), 56.7 µM (≈ 16 µg/mL); in the assay with E. coli biofilm (Escherichia coli; read-out: MIC (μM) E. coli Biofilm), 56.7 µM (≈ 16 µg/mL). In addition, the “MIC (μM) S. epidermidis Biofilm” value with S. epidermidis biofilm amounted to 28.3 µM (≈ 7.99 µg/mL).
`O=C(CCCC(=O)Nc1ncc([N+](=O)[O-])s1)Nc1ncc([N+](=O)[O-])s1` [VPC161276, N^1,N^5-Bis(5-nitrothiazol-2-yl)glutaramide]: the MIC came out at 31.1 µM (≈ 12 µg/mL) with C. jejuni (Campylobacter jejuni, 24 h, read-out: MIC (μM) C. jejuni); 82.8 µM (≈ 32 µg/mL) in the assay on S. epidermidis (Staphylococcus epidermidis, 24 h, read-out: MIC (μM) S. epidermidis Plank); 5.2 µM (≈ 2.01 µg/mL) in the assay with H. pylori (Helicobacter pylori, 24 h, read-out: MIC (μM) H. pylori); 82.8 µM (≈ 32 µg/mL) in the assay with E. coli (Escherichia coli, 24 h, read-out: MIC (μM) E. coli Plank); 82.8 µM (≈ 32 µg/mL) in the assay on MRSA (Staphylococcus aureus, MRSA, 24 h, read-out: MIC (μM) MRSA); 82.8 µM (≈ 32 µg/mL) with E. coli biofilm (Escherichia coli, read-out: MIC (μM) E. coli Biofilm). Moreover, the “MIC (μM) S. epidermidis Biofilm” value in the assay on S. epidermidis biofilm turned out to be 1.3 µM (≈ 0.502 µg/mL).
On to `Cc1ncc([N+](=O)[O-])n1CCOC(=O)CCCC(=O)Nc1ncc([N+](=O)[O-])s1` [VPC161277], for which the MIC in the assay with C. jejuni (broth dilution, Brain Heart Infusion, 24 h, read-out: MIC (μM) C. jejuni) was 29.1 µM (≈ 12 µg/mL); with S. epidermidis (broth dilution, Trypticase Soy, 24 h, read-out: MIC (μM) S. epidermidis Plank), 77.6 µM (≈ 32 µg/mL); with H. pylori (broth dilution, Brain Heart Infusion, 24 h, read-out: MIC (μM) H. pylori), 1.8 µM (≈ 0.742 µg/mL); with E. coli (broth dilution, LB medium, 24 h, read-out: MIC (μM) E. coli Plank) it was 77.6 µM (≈ 32 µg/mL); in the assay with MRSA (broth dilution, Trypticase Soy, 24 h, read-out: MIC (μM) MRSA), 77.6 µM (≈ 32 µg/mL); in the assay on E. coli biofilm (biofilm; read-out: MIC (μM) E. coli Biofilm), 77.6 µM (≈ 32 µg/mL). Further, in the assay on S. epidermidis biofilm, the “MIC (μM) S. epidermidis Biofilm” value was 2.4 µM (≈ 0.99 µg/mL).
In the case of `O=C(Nc1ncc([N+](=O)[O-])s1)c1ncc([N+](=O)[O-])s1` [VPC161280], the MIC in the assay on C. jejuni (Thiophene analogues table, read-out: MIC C. jejuni) is reported as 13.3 µM (≈ 4.01 µg/mL); with S. epidermidis (planktonic, Thiophene analogues table, read-out: MIC S. epidermidis Plank) it was 5.0 µM (≈ 1.51 µg/mL); in the assay with H. pylori (Thiophene analogues table, read-out: MIC H. pylori), 6.6 µM (≈ 1.99 µg/mL); with E. coli (planktonic, Thiophene analogues table, read-out: MIC E. coli Plank), 39.8 µM (≈ 12 µg/mL); in the assay with MRSA (Thiophene analogues table, read-out: MIC MRSA), 53.1 µM (≈ 16 µg/mL); in the assay with E. coli biofilm (biofilm; Thiophene analogues table; read-out: MIC E. coli Biofilm), 3.3 µM (≈ 0.994 µg/mL). The “MIC S. epidermidis Biofilm” value with S. epidermidis biofilm (Thiophene analogues table) is 6.6 µM (≈ 1.99 µg/mL).
`O=C(Nc1ncc([N+](=O)[O-])s1)c1ccc(Br)o1` [VPC161281, 5-Bromo-N-(5-nitrothiazol-2-yl)furan-2-carboxamide]: the MIC in the assay on C. jejuni (Campylobacter jejuni, Furan analogues table, read-out: MIC C. jejuni) worked out at 12.6 µM (≈ 4.01 µg/mL); with S. epidermidis (Staphylococcus epidermidis, planktonic, Furan analogues table, read-out: MIC S. epidermidis Plank) it was 25.1 µM (≈ 7.98 µg/mL); in the assay with H. pylori (Helicobacter pylori, Furan analogues table, read-out: MIC H. pylori) it was 1.6 µM (≈ 0.509 µg/mL); in the assay with E. coli (Escherichia coli, planktonic, Furan analogues table, read-out: MIC E. coli Plank), 101 µM (≈ 32 µg/mL); in the assay with MRSA (Staphylococcus aureus, MRSA, Furan analogues table, read-out: MIC MRSA) it was 6.3 µM (≈ 2 µg/mL); in the assay on E. coli biofilm (Escherichia coli; biofilm; Furan analogues table; read-out: MIC E. coli Biofilm) it was 0.4 µM (≈ 0.127 µg/mL). Also, the “Disk Diff (%) C. difficile” value in the assay with C. difficile worked out at 92%. In addition, the “MIC S. epidermidis Biofilm” value against S. epidermidis biofilm (Furan analogues table) was 50.3 µM (≈ 16 µg/mL).

These data come from patent US8835644B2, “Broad spectrum benzothiophene-nitrothiazolide and other antimicrobials” (University of Virginia Patent Foundation, priority 2009, dated 2014).
